In patent US20240174638A1, “HETEROARYL DERIVATIVES AS APELIN RECEPTOR AGONISTS” (RESEARCH TRIANGLE INSTITUTE, priority 2021, published 2024):

Tested on: LAD-ligated male C57BI/6 mice (myocardial infarction)
Test: Cardiac function after coronary artery (LAD) ligation, echocardiography
Type: in vivo, mouse
From the text: Adult male C57BI/6 mice, 3 months old, were purchased from Jackson Laboratories and acclimated for 3 or more days in standard housing. All mice underwent twice daily intra-gastric administration of physiologic saline for 7 days pre-operatively (acclimation period). They also underwent standard B- and M-mode echocardiographic (ECHO) imaging (VisualSonics Vevo 2100) of the left heart under conscious restraint, 1-5 days prior to surgery.
Under ketamine/xylazine anesthesia, mice were intubated and ventilated, then incised through the left thoracic wall between the 3rd and 4th ribs to expose the heart. For ligation of the left anterior descending coronary artery (LAD), an 8-0 nylon suture was inserted under microscopic view (Wild/Leica operating microscope), placing and tying the ligature at a point 1 mm distal to the point where the artery emerges from the edge of the left atrium. Confirmation was provided by clear blanching of the downstream ventricle wall. Control sham-treated mice underwent needle and 8-0 suture passage under the coronary artery but with suture removal without ligation. The wound was closed with 6-0 suture in two layers (muscle and skin, respectively) and mice were recovered on a warming blanket. They received buprenorphine intraoperatively and twice daily postoperatively for 48 hours, by subcutaneous injection (50 ug/kg body weight).
A total of 48 mice entered the study. Eight mice underwent sham surgery, and these mice received vehicle treatment after surgery. 40 mice underwent LAD ligation, with 20 in each treatment group. Treatment was by oral gavage (intra-gastric administration) at 10 mL/kg body weight, twice daily (7-9 am and 4-6 pm), starting 1-2 hours after surgery and continuing until study termination. Treatment was either with EXAMPLE 22 at a concentration of 3 mg/mL (30 mg/kg) or vehicle for the test agent.
Echocardiography was done under brief, conscious restraint using a VisualSonics Vevo 2100 ultrasound machine, pre-operatively and at 2 and 4 weeks postoperatively. Standard B-mode and M-mode ultrasound imaging was captured at each imaging session. Echocardiographic images were analyzed for left ventricular function, measuring the interventricular septal thickness, internal ventricular cavity dimension, and posterior wall thickness at both diastole and systole from M-mode images at the level of the papillary muscles. The left ventricle ejection fraction and fractional shortening were calculated from these values:
Ejection Fraction (%)=100×[LVIDd^3−LVIDs^3]/LVIDd^3Fractional Shortening (%)=100×[LVIDd−LVIDs]/LVIDd, • where LVID=left ventricle inner diameter (internal ventricular cavity dimension), d=diastole, s=systole
After the 4-week ECHO imaging, mice were anesthetized and a terminal blood draw was taken from the abdominal aorta into 3.8% citrate (9:1), and the plasma was obtained by centrifugation and frozen. Mice were then euthanized (anesthesia overdose followed by cervical dislocation) and the hearts were weighed and the area of infarction was visually measured with t ruler for cranial-caudal and for lateral axes lengths of the approximately oval infarction zone (ligated hearts only). The hearts, and both kidneys, were then immersion-fixed in neutral-buffered formalin for subsequent histopathological evaluation. Plasma, kidney, and heart specimens were returned to Study Sponsor for further evaluation. The time between the last drug dosing and the blood draw was recorded, for future dose-response evaluation by Study Sponsor.
Summary statistics by “treatment” were provided for the change from baseline to week 2 and change from baseline to week 4 where baseline was defined as the pre-echos time-point. For each parameter, the mean “treatment” difference between “Example 22” and “Vehicle” was analyzed using a 2-sample t-test. The analysis was conducted using SAS Version 9.4 via PROC TTEST under unequal variances for the “treatments” using the Satterthwaite method. […]

[1] = Ex 22 vs Vehicle, LAD-ligated mice, 30 mg/kg p.o. twice daily
[2] = LAD-ligated mice, 30 mg/kg p.o. twice daily

In the case of `O=C(O)C[C@H](CCN1CCCC(F)(F)C1)NC(=O)c1cc(-c2ccccc2C(F)(F)F)n(-c2nccs2)n1` [Example 22, (3S)-5-(3,3-difluoropiperidin-1-yl)-3-{[1-(1,3-thiazol-2-yl)-5-[2-(trifluoromethyl)phenyl]-1H-pyrazol-3-yl]formamido}pentanoic acid], the “deaths in ligated group” value (30 mg/kg p.o. twice daily, deaths between 3 and 11 days postoperatively, vehicle 7/20) is reported as 2/20, the ejection fraction (4 weeks post-treatment) is reported as “Statistically significant improvement” and the “EF, Change from baseline, Week 2, Difference” value [1] is reported as 4.81%. The “EF, Change from baseline, Week 4, Difference” value [1] was 10.70%, the “FS, Change from baseline, Week 2, Difference” value [1] was 4.21% and the “FS, Change from baseline, Week 4, Difference” value [1] was 7.17%. For the same compound, the “Heart Rate, Change from baseline, Week 2, Difference” value [1] was 11.43, the “Heart Rate, Change from baseline, Week 4, Difference” value [1] was −6.42 and the “IVS d, Change from baseline, Week 2, Difference” value [1] was 0.40. The “IVS d, Change from baseline, Week 4, Difference” value [1] was 0.49, the “IVS s, Change from baseline, Week 2, Difference” value [1] was 0.47 and the “IVS s, Change from baseline, Week 4, Difference” value [1] was 0.56. For the same compound, the “LV Mass corrected, Change from baseline, Week 2, Difference” value [1] was 18.64, the “LV Mass corrected, Change from baseline, Week 4, Difference” value [1] was 7.38 and the “LV Mass, Change from baseline, Week 2, Difference” value [1] was 23.30. For the same compound, the “LV Mass, Change from baseline, Week 4, Difference” value [1] was 9.23, the “LV VoI d, Change from baseline, Week 2, Difference” value [1] was −5.56 and the “LV VoI d, Change from baseline, Week 4, Difference” value [1] was −29.03. For the same compound, the “LV VoI s, Change from baseline, Week 2, Difference” value [1] was −1.67, the “LV VoI s, Change from baseline, Week 4, Difference” value [1] was −22.79 and the “LVID d, Change from baseline, Week 2, Difference” value [1] was −0.23. The “LVID d, Change from baseline, Week 4, Difference” value [1] was −0.70, the “LVID s, Change from baseline 2, Week 2, Difference” value [1] was −0.22 and the “LVID s, Change from baseline, Week 4, Difference” value [1] was −0.74. For the same compound, the “LVPW d, Change from baseline, Week 2, Difference” value [1] was 0.03, the “LVPW d, Change from baseline, Week 4, Difference” value [1] was 0.20 and the “LVPW s, Change from baseline, Week 2, Difference” value [1] was 0.09. The “LVPW s, Change from baseline, Week 4, Difference” value [1] was 0.38, the “Weight, Change from baseline, Week 2, Difference” value [1] was 0.21 and the “Weight, Change from baseline, Week 4, Difference” value [1] was 0.26. The “EF, Change from baseline, Week 2, Mean” value [2] was −34.17%, the “EF, Change from baseline, Week 2, Median” value [2] was −36.15% and the “EF, Change from baseline, Week 4, Mean” value [2] was −38.46%. The “EF, Change from baseline, Week 4, Median” value [2] was −37.79%, the “FS, Change from baseline, Week 2, Mean” value [2] was −25.71% and the “FS, Change from baseline, Week 2, Median” value [2] was −27.07%. For the same compound, the “FS, Change from baseline, Week 4, Mean” value [2] was −28.24%, the “FS, Change from baseline, Week 4, Median” value [2] was −28.24% and the “Heart Rate, Change from baseline, Week 2, Mean” value [2] was 20.04. For the same compound, the “Heart Rate, Change from baseline, Week 2, Median” value [2] was 40.66, the “Heart Rate, Change from baseline, Week 4, Mean” value [2] was 4.65 and the “Heart Rate, Change from baseline, Week 4, Median” value [2] was 11.40. The “IVS d, Change from baseline, Week 2, Mean” value [2] was −0.03, the “IVS d, Change from baseline, Week 2, Median” value [2] was 0.02 and the “IVS d, Change from baseline, Week 4, Mean” value [2] was 0.10. The “IVS d, Change from baseline, Week 4, Median” value [2] was 0.12, the “IVS s, Change from baseline, Week 2, Mean” value [2] was −0.17 and the “IVS s, Change from baseline, Week 2, Median” value [2] was −0.24. For the same compound, the “IVS s, Change from baseline, Week 4, Mean” value [2] was −0.02, the “IVS s, Change from baseline, Week 4, Median” value [2] was 0.11 and the “LV Mass corrected, Change from baseline, Week 2, Mean” value [2] was 54.81. For the same compound, the “LV Mass corrected, Change from baseline, Week 2, Median” value [2] was 63.28, the “LV Mass corrected, Change from baseline, Week 4, Mean” value [2] was 66.14 and the “LV Mass corrected, Change from baseline, Week 4, Median” value [2] was 66.57. For the same compound, the “LV Mass, Change from baseline, Week 2, Mean” value [2] was 68.51, the “LV Mass, Change from baseline, Week 2, Median” value [2] was 79.11 and the “LV Mass, Change from baseline, Week 4, Mean” value [2] was 82.67. The “LV Mass, Change from baseline, Week 4, Median” value [2] was 83.21, the “LV VoI d, Change from baseline, Week 2, Mean” value [2] was 39.76 and the “LV VoI d, Change from baseline, Week 2, Median” value [2] was 38.79. For the same compound, the “LV VoI d, Change from baseline, Week 4, Mean” value [2] was 53.15, the “LV VoI d, Change from baseline, Week 4, Median” value [2] was 51.79 and the “LV VoI s, Change from baseline, Week 2, Mean” value [2] was 33.74. The “LV VoI s, Change from baseline, Week 2, Median” value [2] was 33.90, the “LV VoI s, Change from baseline, Week 4, Mean” value [2] was 45.96 and the “LV VoI s, Change from baseline, Week 4, Median” value [2] was 39.02. For the same compound, the “LVID d, Change from baseline, Week 2, Mean” value [2] was 1.11, the “LVID d, Change from baseline, Week 2, Median” value [2] was 1.09 and the “LVID d, Change from baseline, Week 4, Mean” value [2] was 1.36. For the same compound, the “LVID d, Change from baseline, Week 4, Median” value [2] was 1.45, the “LVID s, Change from baseline 2, Week 2, Mean” value [2] was 1.62 and the “LVID s, Change from baseline 2, Week 2, Median” value [2] was 1.69. The “LVID s, Change from baseline, Week 4, Mean” value [2] was 1.93, the “LVID s, Change from baseline, Week 4, Median” value [2] was 1.92 and the “LVPW d, Change from baseline, Week 2, Mean” value [2] was 0.09. For the same compound, the “LVPW d, Change from baseline, Week 2, Median” value [2] was 0.13, the “LVPW d, Change from baseline, Week 4, Mean” value [2] was −0.00 and the “LVPW d, Change from baseline, Week 4, Median” value [2] was 0.00. The “LVPW s, Change from baseline, Week 2, Mean” value [2] was −0.29, the “LVPW s, Change from baseline, Week 2, Median” value [2] was −0.30 and the “LVPW s, Change from baseline, Week 4, Mean” value [2] was −0.39. The “LVPW s, Change from baseline, Week 4, Median” value [2] was −0.35, the “Weight, Change from baseline, Week 2, Mean” value [2] was −0.13 and the “Weight, Change from baseline, Week 2, Median” value [2] was −0.30. The “Weight, Change from baseline, Week 4, Mean” value [2] was 0.89, the “Weight, Change from baseline, Week 4, Median” value [2] was 0.70 and the “cardiac function after MI” value (compared to vehicle treated animals, 30 mg/kg p.o. twice daily) was “improved cardiac fraction”.
